The source of these data is patent US7151105B2, “Inhibitors of Hepatitis C virus RNA-dependent RNA polymerase, and compositions and treatments using the same” (Agouron Pharmaceuticals, Inc., priority 2004, dated 2006).

In the test the target is T1, Recombinant HCV polymerase (Hepatitis C virus genotype 1b, UniProt P26663).
T1 construct: Recombinant HCV polymerase was tested for its ability to perform primer/template-directed transcription
T1 sequence (P26663 2420-3010): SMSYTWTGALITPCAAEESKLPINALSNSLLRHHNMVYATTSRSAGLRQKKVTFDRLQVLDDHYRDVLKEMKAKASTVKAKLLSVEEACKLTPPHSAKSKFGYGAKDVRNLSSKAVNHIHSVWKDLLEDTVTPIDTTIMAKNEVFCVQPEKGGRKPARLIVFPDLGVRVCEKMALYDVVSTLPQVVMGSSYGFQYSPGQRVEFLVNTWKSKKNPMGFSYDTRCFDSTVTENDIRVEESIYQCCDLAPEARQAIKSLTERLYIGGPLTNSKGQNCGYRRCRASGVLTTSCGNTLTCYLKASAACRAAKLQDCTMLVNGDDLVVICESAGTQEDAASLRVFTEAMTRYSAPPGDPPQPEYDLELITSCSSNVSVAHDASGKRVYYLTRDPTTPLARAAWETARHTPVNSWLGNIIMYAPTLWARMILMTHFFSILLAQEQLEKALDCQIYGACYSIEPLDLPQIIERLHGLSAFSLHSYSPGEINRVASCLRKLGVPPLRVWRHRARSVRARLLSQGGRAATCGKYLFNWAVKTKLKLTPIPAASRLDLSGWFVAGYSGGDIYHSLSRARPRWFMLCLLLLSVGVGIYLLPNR
Nature of the test: biochemical. The settings on record: inhibition of polymerase-directed transcription; 30 min at 30° C; 30 nM enzyme; cpm data in triplicate. As to the method:
The compounds described herein were tested for activity with HCV polymerase. Recombinant HCV polymerase was tested for its ability to perform primer/template-directed transcription in assays that contained 30 mM tris-HCl pH 7.2, 10 mM MgCl2, 20 mM NaCl, 1 mM Dithiothreitol (DTT), 0.05% Tween-20, 1% glycerol, 5 pmoles biotin-dG12 (primer), 0.5 pmoles poly(rC)300 (template), 1 μM GTP, 0.1–0.3 uCi α-^32P-GTP, and 2.5 pmoles (0.15 μg) HCV polymerase protein in a final volume of 75 μL. Reactions were initiated by addition of enzyme and incubated 30 minutes at 30° C. Reactions were stopped by addition of 33 mM EDTA, and polynucleotide products were collected by filtration through Diethylaminoethyl (DE) Filtermat papers (Wallac). Unincorporated triphosphate was removed by washing the filters with 5% dibasic sodium phosphate. The filters were counted in a Packard Tri-Lux Microbeta scintillation counter (Packard Bioscience, Meriden, Conn.). Compounds to be tested were added at various concentrations, e.g., 1 μm to 50 μm, from stocks in 10% DMSO-water (final DMSO is 1% in reaction).
IC50 values were estimated from the primary cpm data (collected in triplicate) using the formula: cpm (I)=cpm (no inhibitor)(1−([I]/([I]+IC50))). […] A percent inhibition value is expressed for a compound where it was impractical to calculate an IC50 value with available data.
As for `Cc1nn(C)c(C)c1CC1=C(O)CC(CCc2ccc(C(C)(C)C#N)c(F)c2)(C2CCCC2)OC1=O` (stereo not drawn) [A(89)], the IC50 stood at 9 nM.

On to `CCCOc1cnc(CC)cc1CCC1(C2CCCC2)CC(O)=C(Cc2nc3nc(C)cc(C)n3n2)C(=O)O1` (single isomer, unassigned) [A(53), 6-Cyclopentyl-3-[(5,7-dimethyl[1,2,4]triazolo[1,5-a]pyrimidin-2-yl)methyl]-6-[2-(2-ethyl-5-propoxypyridin-4-yl)ethyl]-4-hydroxy-5,6-dihydro-2H-pyran-2-one], for which the IC50 is 3 nM. In the case of `CCn1cc(CC2=C(O)CC(CCc3ccc(C(C)(C)C#N)c(Cl)c3)(C3CCCC3)OC2=O)cn1` (stereo not drawn) [B(23), 2-[2-Chloro-4-(2-{2-cyclopentyl-5-[(1-ethyl-1H-pyrazol-4-yl)methyl]-4-hydroxy-6-oxo-3,6-dihydro-2H-pyran-2-yl}ethyl)phenyl]-2-methylpropanenitrile] it was 140 nM. Under `CCc1cc(CCC2(C3CCCC3)CC(=O)CC(=O)O2)ccc1CC#N` (stereo not drawn) [A(102), {4-[2-(2-Cyclopentyl-4,6-dioxotetrahydro-2H-pyran-2-yl)ethyl]-2-ethylphenyl}acetonitrile] stands 840 nM; under `CCCOc1cc(O)c(CCC2(C3CCCC3)CC(O)=C(Cc3nc4nc(C)cc(C)n4n3)C(=O)O2)cc1CC` (stereo not drawn) [A(49), 6-Cyclopentyl-3-[(5,7-dimethyl[1,2,4]triazolo[1,5-a]pyrimidin-2-yl)methyl]-6-[2-(5-ethyl-2-hydroxy-4-propoxyphenyl)ethyl]-4-hydroxy-5,6-dihydro-2H-pyran-2-one], 7 nM. Under `CCc1cc(CCC2(C3CCCC3)CC(O)=C(Cc3nc4nc(C)cc(C)n4n3)C(=O)O2)c(OCC2CCC2)cc1O` (stereo not drawn) [A(60), 6-{2-[2-(Cyclobutylmethoxy)5-ethyl-4-hydroxyphenyl]ethyl}-6-cyclopentyl-3-[(5,7-dimethyl[1,2,4]triazolo[1,5-a]pyrimidin-2-yl)methyl]-4-hydroxy-5,6-dihydro-2H-pyran-2-one] stands 3 nM.

For the compound `CC(=O)NCc1ccc(CCC2(C3CCCC3)CC(O)=C(Cc3nc4nc(C)cc(C)n4n3)C(=O)O2)cc1F` (stereo not drawn) [A(25), N-[4-(2-{2-Cyclopentyl-5-[(5,7-dimethyl[1,2,4]triazolo[1,5-a]pyrimidin-2-yl)methyl]-4-hydroxy-6-oxo-3,6dihydro-2H-pyran-2-yl}ethyl)-2-fluorobenzyl]acetamide], the IC50 came out at 100 nM. Under `CCCOc1cc(O)c(CC)cc1CCC1(C2CCCC2)CC(O)=C(Cc2nc3ncc(C)cn3n2)C(=O)O1` (stereo not drawn) [A(47), 6-Cyclopentyl-6-[2-(5-ethyl-4-hydroxy-2-propoxyphenyl)ethyl]-4-hydroxy-3-[(6-methyl[1,2,4]triazolo[1,5-a]pyrimidin-2-yl)methyl]-5,6-dihydro-2H-pyran-2-one] stands 5 nM; under `CCn1cc(CC2=C(O)CC(CCc3ccc(C(C)(C)C#N)c(F)c3)(C3CCCC3)OC2=O)c(C)n1` (stereo not drawn) [A(95), 2-[4-(2-{2-Cyclopentyl-5-[(1-ethyl-3-methyl-1H-pyrazol-4-yl)methyl]-4-hydroxy-6-oxo-3,6-dihydro-2H-pyran-2-yl}ethyl)-2-fluorophenyl]-2-methylpropanenitrile], 40 nM; under `CCc1cc(CCC2(C3CCCC3)CC(=O)CC(=O)O2)ccc1OCCN(C)C(=O)OC(C)(C)C` (stereo not drawn) [A(67), tert-Butyl 2-{4-[2-(2-cyclopentyl-4,6-dioxotetrahydro-2H-pyran-2-yl)ethyl]-2-ethylphenoxy}ethyl(methyl)carbamate], 47000 nM. In the case of `CCc1cc(CCC2(C3CCCC3)CC(O)=C(Cc3nc4nc(C)cc(C)n4n3)C(=O)O2)ccn1` (single isomer, unassigned) [A(45), 6-Cyclopentyl-3-[(5,7-dimethyl[1,2,4]triazolo[1,5-a]pyrimidin-2-yl)methyl]-6-[2-(2-ethylpyridin-4-yl)ethyl]-4-hydroxy-5,6-dihydro-2H-pyran-2-one] it was 14 nM; in that of `CCc1cc(CCC2(C3CCCC3)CC(O)=C(Cc3nc4ncc(C)cn4n3)C(=O)O2)c(OC)cn1` (stereo not drawn) [A(4), 6-Cyclopentyl-6-[2-(2-ethyl-5-methoxypyridin-4-yl)ethyl]-4-hydroxy-3-[(6-methyl[1,2,4]triazolo[1,5-a]pyrimidin-2-yl)methyl]-5,6-dihydro-2H-pyran-2-one], 7 nM. In the case of `Cc1cc(C)n2nc(CC3=C(O)CC(CCc4ccc(S(=O)(=O)C(F)(F)F)cc4)(C4CCCC4)OC3=O)nc2n1` (stereo not drawn) [A(65)] it was 250 nM; in that of `CCCS(=O)(=O)Nc1ccc(CCC2(C3CCCC3)CC(O)=C(Cc3nc4nc(C)cc(C)n4n3)C(=O)O2)cc1CC` (stereo not drawn) [A(109), N-[4-(2-{2-cyclopentyl-5-[(5,7-dimethyl[1,2,4]triazolo[1,5-a]pyrimidin-2-yl)methyl]-4-hydroxy-6-oxo-3,6-dihydro-2H-pyran-2-yl}ethyl)-2-ethylphenyl]propane-1-sulfonamide], 6 nM.

Consider `COc1cc(O)c(C(C)=O)cc1CCC1(C2CCCC2)CC(=O)CC(=O)O1` (stereo not drawn) [A(99), 6-[2-(5-Acetyl-4-hydroxy-2-methoxyphenyl)ethyl]-6-cyclopentyldihydro-2H-pyran-2,4(3H)-dione], for which the IC50 came out at 8400 nM. In the case of `COc1cc(OC)c(CCC2(C3CCCC3)CC(O)=C(Cc3nc(-c4ccccc4)nn3C)C(=O)O2)cc1Cl` (stereo not drawn) [B(17), 6-[2-(5-Chloro-2,4-dimethoxyphenyl)ethyl]-6-cyclopentyl-4-hydroxy-3-[(1-methyl-3-phenyl-1H-1,2,4-triazol-5-yl)methyl]-5,6-dihydro-2H-pyran-2-one] it was 26 nM; in that of `COc1cc(OC)c(CCC2(C3CCCC3)CC(O)=C(Cc3nc(-c4cnccn4)nn3C)C(=O)O2)cc1Cl` (stereo not drawn) [B(15), 6-[2-(5-Chloro-2,4-dimethoxyphenyl)ethyl]-6-cyclopentyl-4-hydroxy-3-[(1-methyl-3-pyrazin-2-yl-1H-1,2,4-triazol-5-yl)methyl]-5,6-dihydro-2H-pyran-2-one], 19 nM. In the case of `CCc1cc(CCC2(C3CCCC3)CC(O)=C(Cc3nc4nc(C)cc(C)n4n3)C(=O)O2)ccc1CN1CCOCC1` (racemic) [A(123), 6-cyclopentyl-3-[(5,7-dimethyl[1,2,4]triazolo[1,5-a]pyrimidin-2-yl)methyl]-6-{2-[3-ethyl-4-(morpholin-4-ylmethyl)phenyl]ethyl}-4-hydroxy-5,6-dihydro-2H-pyran-2-one] it was 39 nM; in that of `CCc1cc(CCC2(C3CCCC3)CC(O)=C(Cc3nc4nc(C)cc(C)n4n3)C(=O)O2)ccc1CNC(C)=O` (single isomer, unassigned; enantiomer 1) [A(132), Enantiomer 1 of N-[4-(2-[2-cyclopentyl-5-[(5,7-dimethyl[1,2,4]triazolo[1,5-a]pyrimidin-2-yl)methyl]-4-hydroxy-6-oxo-3,6-dihydro-2H-pyran-2-yl}ethyl)-2-ethylbenzyl]acetamide], 35 nM; in that of `CCc1cc(CCC2(C3CCCC3)CC(O)=C(Cc3nc4nc(C)cc(C)n4n3)C(=O)O2)ccc1CNS(C)(=O)=O` (single isomer, unassigned; enantiomer 2) [A(130), Enantiomer 2 of N-[4-(2-{2-cyclopentyl-5-[(5,7-dimethyl[1,2,4]triazolo[1,5-a]pyrimidin-2-yl)methyl]-4-hydroxy-6-oxo-3,6-dihydro-2H-pyran-2-yl}ethyl)-2-ethylbenzyl]methanesulfonamide], 3 nM.

As for `CCn1nc(C)c(CC2=C(O)CC(CCc3cc(Cl)c(OC)cc3OC)(C3CCCC3)OC2=O)c1C` (stereo not drawn) [B(18), 6-[2-(5-Chloro-2,4-dimethoxyphenyl)ethyl]-6-cyclopentyl-3-[(1-ethyl-3,5-dimethyl-1H-pyrazol-4-yl)methyl]-4-hydroxy-5,6-dihydro-2H-pyran-2-one], the IC50 turned out to be 170 nM. Under `Cc1cnc2nc(CC3=C(O)CC(CCc4ccc(C(C)(C)O)c(Cl)c4)(C4CCCC4)OC3=O)nn2c1` (stereo not drawn) [B(36), 6-{2-[3-Chloro-4-(1-hydroxy-1-methylethyl)phenyl]ethyl}-6-cyclopentyl-4-hydroxy-3-[(6-methyl[1,2,4]triazolo[1,5-a]pyrimidin-2-yl)methyl]-5,6-dihydro-2H-pyran-2-one] stands 19 nM; under `Cc1cc(C)n2nc(CC3=C(O)CC(CCc4ccc(C5(C#N)CC5)cc4)(C4CCCC4)OC3=O)nc2n1` (stereo not drawn) [A(93), 1-[4(2-{2-Cyclopentyl-5-[(5,7-dimethyl[1,2,4]triazolo[1,5-a]pyrimidin-2-yl)methyl]-4-hydroxy-6-oxo-3,6-dihydro-2H-pyran-2-yl}ethyl)phenyl]cyclopropanecarbonitrile], 6 nM; under `Cc1cc(C)n2nc(CC3=C(O)CC(CCc4ccc(C(C)(C)O)c(Cl)c4)(C4CCCC4)OC3=O)nc2n1` (stereo not drawn) [B(37), 6-{2-[3-Chloro-4-(1-hydroxy-1-methylethyl)phenyl]ethyl}-6-cyclopentyl-3[(5,7-dimethyl[1,2,4]triazolo[1,5-a]pyrimidin-2-yl)methyl]-4-hydroxy-5,6-dihydro-2H-pyran-2-one], 22 nM.

As usually defined, the IC50 is the concentration needed to halve the response being measured.
